In brackets after ≈: the same amount, converted by molar mass. Like-named read-outs stand apart in the source and are kept apart here.
How the values were obtained:
[1] = tested on: human dermal fibroblasts; assay: Cytotoxicity, Blue Cell Viability assay; conditions: 24 h
Protocol: (§1) Human dermal fibroblasts, human epidermal keratinocytes (HaCaT), and THP1 human monocytes were used to evaluate the cytotoxic effects of EO-based compounds.
(§2) Fibroblasts and HaCaT were routinely grown in high-glucose DMEM supplemented with 10% FBS and antibiotic-antimycotic. Monocytes were cultured in RPMI 1640 supplemented with 10% FBS, 1% HEPES, 1% nonessential amino acids, 0.1% 2-mercaptoethanol 50 mM, 1% sodium pyruvate 100 mM, and antibiotic-antimycotic. Macrophages were obtained by the in vitro differentiation of monocytes by adding 1 µM PMA to the cell culture. All cell types were grown in a humidified atmosphere at 37 °C and 5% CO2.
(§3) The cytotoxicity was determined by measuring cell metabolism through the Blue Cell Viability assay. Cells were seeded on MW96 microplates and incubated with the tested molecules (0.004–0.125 mg/mL) for 24 h. Control samples (not treated and chlorhexidine treated) were also analyzed. Then, the reagent was added (10%) and cells were incubated for 4 h at 37 °C. The reduction of the dye by metabolically active cells was monitored in a microplate reader (Multimode Synergy HT Microplate Reader; Biotek, Winooski, WI, USA) at 535/590 nm ex/em. Cell viability was determined by interpolation of the emission data obtained from the treated samples and the control samples (not treated cells, 100% viability).

[2] = tested on: macrophages (THP1 human monocytes differentiated with PMA); assay: Cytotoxicity, Blue Cell Viability assay; conditions: 24 h
Protocol: as §1, §2, §3

[3] = tested on: human epidermal keratinocytes (HaCaT); assay: Cytotoxicity, Blue Cell Viability assay; conditions: 24 h; for subcytotoxic dose: keratinocytes
Protocol: as §1, §2, §3

[4] = tested on: S. aureus biofilm; assay: Biofilm disruption: elimination of preformed biofilm (CFU/mL count); type: cell-based, Staphylococcus aureus; conditions: 0.5 mg/mL, 24 h, vs untreated biofilm
Protocol: S. aureus was grown overnight in TSB until stationary growth phase was reached. At this point, bacteria were adjusted to 10^7 CFU/mL and added to a MW96 microplate and incubated at 37 °C for 16 h without shaking. After incubation, culture medium was discarded and biofilms were washed twice with PBS. In order to determine biofilm formation, Calcofluor White Stain (50 µL) was added to each well and incubated 1 min in the dark at room temperature. After incubation, the stain was removed and biofilms were washed twice with PBS. Samples were air-dried in the dark to be further visualized in an inverted fluorescence microscope (Olympus IX81). The effects of EO molecules (0.25–1 mg/mL) to prevent the formation of biofilm and to disrupt an already formed S. aureus biofilm were studied. EO compounds were added to preformed biofilms and samples were incubated for 24 h at 37 °C without shaking. After incubation, biofilms were disrupted by sonication (15 min, 200 W; Ultrasons, JP Selecta, Barcelona, Spain). Samples were then diluted and seeded onto agar plates to count the viable colonies grown after 24 h of incubation at 37 °C.

[5] = tested on: tumor cell lines; conditions: cited from earlier work
[6] = tested on: S. aureus biofilm; assay: Inhibition of biofilm formation (CFU/mL count); type: cell-based, Staphylococcus aureus; conditions: added to bacteria suspension, 16 h; concentration not printed in the sentence (Figure 5B)
Protocol: To study the effects of the compounds present in the EOs on biofilm formation, those were added to bacterial suspensions (10^7 CFU/mL) in a MW96 microplate and incubated for 16 h at 37 °C without shaking. After incubation, planktonic cells were removed by washing them twice with PBS. Biofilm samples were then sonicated as described above and serially diluted to be further plated on agar. Viable bacteria (CFU/mL) were counted after 24 h of incubation at 37 °C.

[7] = tested on: E. coli and S. aureus; assay: Bactericidal mechanism by SEM, flow cytometry and confocal microscopy; type: cell-based, Escherichia coli, Staphylococcus aureus; conditions: treated at MIC and MBC for 24 h
Protocol: Bacteria morphology before and after treatment with EO molecules was analyzed by SEM as we previously reported. Briefly, logarithmic growth phase E. coli and S. aureus bacteria cultures (~10^5 CFU/mL) were treated with the selected EO compounds at MIC and MBC values and incubated overnight at 37 °C. Following incubation, samples were spin-dried at 600 g and washed twice in PBS (0.1 M). Bacteria were fixed in 2.5% glutaraldehyde for 90 min and subsequently filtered and dehydrated in ethanol solutions series (30, 50, 70, 80, 90, and 100%; twice for 15 min). Finally, samples were air-dried at room temperature and covered with Pt. SEM micrographs were acquired in a SEM Inspect F50 equipment (FEI Co., LMA-INA, Zaragoza, Spain).
In order to study the bactericidal mechanism of the different molecules present in EOs, E. coli and S. aureus bacteria samples (10^7 CFU/mL) were centrifuged at 4400× g for 10 min and resuspended in the different compound solutions at MIC and MBC concentrations following the protocols previously described. Control groups (not treated and chlorhexidine treated bacteria) were also analyzed. All samples were incubated overnight at 37 °C. After propidium iodide (25 µg/mL; Sigma-Aldrich, Munich, Germany) addition, samples were analyzed by flow cytometry in Gallios equipment (Beckman Coulter Company, Cell Separation and Cytometry Unit, CIBA, IIS Aragon, Zaragoza, Spain).
The Live/Dead®BacLight™ bacterial viability kit (Molecular Probes, Fisher Scientific, Hampton, USA) was used to detect bacteria membrane damage. The methodology is based on the double-staining by SYTO9 and propidium iodide as indicated by the manufacturer. […] Samples were then mounted on slides and visualized by confocal microscopy (Leica TCS SP2 Laser Scanning Confocal Microscope, Microscopy Unit, CIBA, IIS Aragon, Zaragoza, Spain). Control samples were also tested as described above.

[8] = tested on: S. aureus ATCC 25923; assay: MIC and MBC determination, broth microdilution method; type: cell-based; conditions: Staphylococcus aureus
Protocol: (§4) A Gram-negative model E. coli S17 strain was used, which was kindly donated by Dr. Jose Antonio Ainsa, exerting resistance to streptomycin as it is also widely used for transformation purposes. S. aureus ATCC 25923, well-known as not a resistant strain and used in susceptibility tests, was evaluated as a Gram-positive model. Both strains were initially grown overnight in TSB at 37 °C under shaking (150 rpm) obtaining, in the stationary growth phase, 10^8–10^9 CFU/mL. TSA was used for seeding bacteria in an incubator at 37 °C (Memmert, Schwabach, Germany) in order to calculate the bacteria growth (CFU/mL) after treatment with the EO-contained molecules.
(§5) Inhibitory and bactericidal concentrations of active EO molecules were tested in two bacteria cultures, E. coli and S. aureus, following the broth microdilution method. Liquid growth medium containing an inoculum of 10^5 CFU/mL and serial concentrations of the EO compounds (0.1–4 mg/mL) were used. EO compounds were solubilized in culture medium by adding Tween® 80 (1.5–2% v/v) prior to their serial dilution. Once bacteria suspension was in stationary growth (10^8–10^9 CFU/mL), it was further diluted to ~10^5 CFU/mL and added to different concentrations ([…]) of the antimicrobial agents. Then, samples were incubated for 24 h at 37 °C under shaking (150 rpm). After incubation, bacterial suspensions were diluted in PBS and spot-plated on TSA plates to count colonies after incubation at 37 °C for 24 h. Positive control (untreated bacteria) and negative control (chlorhexidine treated bacteria) samples were also tested.

[9] = tested on: E. coli S17 strain; assay: as above; type: cell-based; conditions: Escherichia coli, S17STRAIN, 24 h, 37 °C, average of 12 replicas
Protocol: as §4, §5

[10] = tested on: fibroblasts; conditions: cited from earlier work
[11] = tested on: intestinal cells; conditions: cited from earlier work
[12] = tested on: S. aureus ATCC 43300; conditions: cited from earlier work
[13] = tested on: S. aureus ATCC 6538; conditions: cited from earlier work
[14] = tested on: S. aureus; conditions: cited from earlier work
[15] = tested on: human dermal fibroblasts, keratinocytes, and macrophages; conditions: 24 h
Protocol: as §1, §2, §3

[16] = Cytotoxicity, Blue Cell Viability assay; conditions: human, human dermal fibroblasts
Protocol: as §1, §2, §3

[17] = ATCC25923, S. aureus, 24 h, 37 °C, average of 12 replicas, read-out: MBC
[18] = ATCC25923, S. aureus, 24 h, 37 °C, average of 12 replicas, read-out: MIC

Row | Structure (SMILES) | bactericidal mechanism [7] | MBC [8, 17] [µg/mL] | MIC [8, 18] [µg/mL] | MBC [9] [µg/mL] | MIC [9] [µg/mL] | subcytotoxic dose [3] | other results
1 | O=C/C=C/c1ccccc1 [Cinnamaldehyde] | membrane disruption | 500 (≈ 3.78 mM) | 400 (≈ 3.03 mM) | 300 (≈ 2.27 mM) | 200 (≈ 1.51 mM) |  | concentration toxic to fibroblasts (affects viability) ([1]; human): 15 µg/mL; dose that reduces viability below 70% ([2]; human): 0.030 mg/mL; dose that reduces viability below 70% ([3]; human): 0.030 mg/mL; reduction in bacteria growth (CFU/mL) of preformed biofilm [4]: around 2 logs; subcytotoxic concentration [5]: ~ 10 µg/mL; decrease in posterior bacterial growth, compound added before biofilm formation [6]: 4 logs
2 | Cc1ccc(C(C)C)c(O)c1 [Thymol] | membrane disruption | 300 (≈ 2 mM) | 200 (≈ 1.33 mM) | 300 (≈ 2 mM) | 200 (≈ 1.33 mM) | 0.060 mg/mL | concentration toxic to fibroblasts (affects viability) ([1]; human): ≥ 90 µg/mL; subcytotoxic concentration ([2]; human): 0.060 mg/mL; concentration giving 50% viability [10]: ~ 5 µg/mL; subcytotoxic concentration [11]: ~ 500 µM
3 | C=CCc1ccc(O)c(OC)c1 [Eugenol] |  | 1500 (≈ 9.13 mM) | 1300 (≈ 7.92 mM) | 500 (≈ 3.04 mM) | 400 (≈ 2.44 mM) |  | 
4 | O=C(/C=C/c1ccc(O)c(O)c1)O[C@H](Cc1ccc(O)c(O)c1)C(=O)O [Rosmarinic acid] |  | 4000 (≈ 11.1 mM) | 2500 (≈ 6.94 mM) | > 4000 | > 4000 |  | 
5 | Cc1ccc(C(C)C)cc1O [Carvacrol] | membrane disruption |  |  | 400 (≈ 2.66 mM) | 200 (≈ 1.33 mM) | 0.030 mg/mL | MIC [12]: 310 µg/mL (≈ 2.06 mM); concentration toxic to fibroblasts (affects viability) ([1]; viability below 70% (ISO 10993-5)): ≥ 90 µg/mL; subcytotoxic concentration ([2]; macrophages): 0.090 mg/mL; MIC ([13]; converted from 0.015% v/v): approximately 0.147 mg/mL; MIC ([13]; converted from 2.5 µL/mL): approximately 2.45 mg/mL; MIC ([13]; ref 18): 0.015 % v/v; MIC ([13]; ref 21): 2.5 µL/mL; MIC ([13]; ref 22): 0.4 mg/mL (≈ 2.66 mM); concentration giving 50% viability ([10]; fibroblasts): ~ 5 µg/mL; reduction in bacteria growth (CFU/mL) of preformed biofilm [4]: 3 logs; MIC ([14]; lower end of literature range): approximately 0.15 mg/mL; MIC ([14]; upper end of literature range): 15000 µg/mL (≈ 99.9 mM); decrease in posterior bacterial growth, compound added before biofilm formation [6]: ~6 logs; MBC ([8]; ATCC25923, 24 h): 300 µg/mL (≈ 2 mM); MIC ([8]; ATCC25923, 24 h): 200 µg/mL (≈ 1.33 mM); subcytotoxic concentration ([11]; intestinal cells): ~ 500 µM
6 | C=C1CC/C=C(\C)CC[C@@H]2[C@@H]1CC2(C)C [β-caryophyllene] |  | > 4000 | > 4000 | > 4000 | > 4000 |  | 
7 | CC(C)=CCC/C(C)=C/CC/C(C)=C/CC/C=C(\C)CC/C=C(\C)CCC=C(C)C [Squalene] |  | > 4000 | > 4000 | > 4000 | > 4000 |  | 
8 | [H]/N=C(\N/C(=N/[H])NCCCCCCNC(=N)NC(=N)Nc1ccc(Cl)cc1)Nc1ccc(Cl)cc1 [chlorhexidine, reference compound] |  |  |  |  |  | lower than 0.004 mg/mL | subcytotoxic concentration [15]: 0.004 mg/mL; subcytotoxic concentration ([2]; human): lower than 0.004 mg/mL; viability at 24 h, 0.004 mg/mL [16]: > 70%
